Measured values taken from US10851067B2, “Kv7 channel activators compositions and methods of use” (Knopp Biosciences LLC, priority 2018, dated 2020).

Molecular target: Kv7.2/7.3 (Homo sapiens, UniProt O43525+O43526)
Assay: Kv7.2/7.3 Activation Assay, QPatch single concentration screen
Assay type: cell-based
Set-up: host or cells: HEK cells, tetracycline-inducible expression; key: 1.2-2.9 (+); 3-3.9 (++); >4 (+++) fold increase over baseline; O represents open channel at holding potential
Conditions: Kv7.2/Kv7.3 co-expressing HEK cells, compound concentration 3 μM, steady-state current at end of 2 s pulse to −30 mV
In short: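 Tetracycline-induced HEK cells expressing human Kv7.2/7.3, recorded 24 h post-induction by automated planar patch clamp. From −80 mV, 2 s steps to −30 mV then 100 ms to −120 mV; compound tested at 3 μM (0.1% DMSO). Steady-state current at end of −30 mV step gives fold increase over baseline.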

Row | Kv7.2/7.3 Activity: increase over baseline in current | SMILES
1 | ++ (3-3.9 (++)) | CC(CF)(CF)CC(=O)Nc1nc2ccc(C(C)(C)O)cc2n1C1CCC1 [Example 370, N-(1-cyclobutyl-6-(2-hydroxypropan-2-yl)-1H-benzo[d]imidazol-2-yl)-4-fluoro-3-(fluoromethyl)-3-methylbutanamide]
2 | ++ (3-3.9 (++)) | CC1(C)C[C@@H]1C(=O)Nc1nc2c(F)cc(C#N)cc2n1C(C)(C)C [Example 372, (S)-N-(1-(tert-butyl)-6-cyano-4-fluoro-1H-benzo[d]imidazol-2-yl)-2,2-dimethylcyclopropane-1-carboxamide]
3 | ++ (3-3.9 (++)) | CC(C)(CC(=O)Nc1nc2ccc(C#N)cc2n1C1(C)CCC1)C1CC1 [Example 379, N-(6-cyano-1-(1-methylcyclobutyl)-1H-benzo[d]imidazol-2-yl)-3-cyclopropyl-3-methylbutanamide]
4 | + (1.2-2.9 (+)) | CC(C)(O)CC(=O)Nc1nc2cccc(OC(F)(F)F)c2n1C1CCC1 [Example 380, N-(1-cyclobutyl-7-(trifluoromethoxy)-1H-benzo[d]imidazol-2-yl)-3-hydroxy-3-methylbutanamide]
5 | ++ (3-3.9 (++)) | CC(C)(C)CC(=O)Nc1nc2c(OC(F)F)cc(C#N)cc2n1C1(C)CCC1 [Example 381, N-(6-cyano-4-(difluoromethoxy)-1-(1-methylcyclobutyl)-1H-benzo[d]imidazol-2-yl)-3,3-dimethylbutanamide]
6 | O | CC(C)(O)c1cc(F)c2nc(NC(=O)CC(C)(C)C(F)(F)F)n(C3CCC3)c2c1F [Example 385, N-(1-cyclobutyl-4,7-difluoro-6-(2-hydroxypropan-2-yl)-1H-benzo[d]imidazol-2-yl)-4,4,4-trifluoro-3,3-dimethylbutanamide]
7 | + (1.2-2.9 (+)) | CC(C)(O)c1ccc2nc(NC(=O)CC(C)(C)C(F)F)n(C3CCC3)c2c1 [Example 386, N-(1-cyclobutyl-6-(2-hydroxypropan-2-yl)-1H-benzo[d]imidazol-2-yl)-4,4-difluoro-3,3-dimethylbutanamide]
8 | ++ (3-3.9 (++)) | CC(C)(C)CC(=O)Nc1nc2ccc(C#N)c(F)c2n1C(C)(C)C [Example 387, N-(1-(tert-butyl)-6-cyano-7-fluoro-1H-benzo[d]imidazol-2-yl)-3,3-dimethylbutanamide]
9 | ++ (3-3.9 (++)) | CC(C)(C)CC(=O)Nc1nc2ccc(OC(F)F)cc2n1C1CCC1 [Example 389, N-(1-cyclobutyl-6-(difluoromethoxy)-1H-benzo[d]imidazol-2-yl)-3,3-dimethylbutanamide]
10 | O | COCc1c(F)ccc2nc(NC(=O)CC(C)(C)C)n(C3CCC3)c12 [Example 394, N-(1-cyclobutyl-6-fluoro-7-(methoxymethyl)-1H-benzo[d]imidazol-2-yl)-3,3-dimethylbutanamide]
11 | ++ (3-3.9 (++)) | CC(C)(C)CC(=O)Nc1nc2ccc(C#N)cc2n1C(C)(C)C(F)(F)F [Example 401, N-(6-cyano-1-(1,1,1-trifluoro-2-methylpropan-2-yl)-1H-benzo[d]imidazol-2-yl)-3,3-dimethylbutanamide]
12 | + (1.2-2.9 (+)) | CC(C)(O)c1ccc2nc(NC(=O)CC(C)(C)C(F)(F)F)n(C34CC(C3)C4)c2c1 [Example 404, N-(1-(bicyclo[1.1.1]pentan-1-yl)-6-(2-hydroxypropan-2-yl)-1H-benzo[d]imidazol-2-yl)-4,4,4-trifluoro-3,3-dimethylbutanamide]
13 | ++ (3-3.9 (++)) | C[C@H](C(=O)Nc1nc2ccc(C(C)(C)O)cc2n1CC(F)(F)F)C(C)(C)C [Example 407, (S)-N-(6-(2-hydroxypropan-2-yl)-1-(2,2,2-trifluoroethyl)-1H-benzo[d]imidazol-2-yl)-2,3,3-trimethylbutanamide]
14 | ++ (3-3.9 (++)) | CC(C)(CC(=O)Nc1nc2cccc(F)c2n1C1CCC1)C(F)(F)F [Example 408, N-(1-cyclobutyl-7-fluoro-1H-benzo[d]imidazol-2-yl)-4,4,4-trifluoro-3,3-dimethylbutanamide]

Continued, compound first:

Row | SMILES | Kv7.2/7.3 Activity: increase over baseline in current
15 | CC(C)(C)CC(=O)Nc1nc2c(Cl)cc(C#N)cc2n1C1CCC1 [Example 377, N-(4-chloro-6-cyano-1-cyclobutyl-1H-benzo[d]imidazol-2-yl)-3,3-dimethylbutanamide] | +++ (>4 (+++) fold increase over baseline)
16 | CC(C)(C)n1c(NC(=O)CC(C)(C)C(F)(F)F)nc2c(F)cc(C#N)cc21 [Example 378, N-(1-(tert-butyl)-6-cyano-4-fluoro-1H-benzo[d]imidazol-2-yl)-4,4,4-trifluoro-3,3-dimethylbutanamide] | +++ (>4 (+++) fold increase over baseline)
17 | COc1cc(Br)cc2c1nc(NC(=O)CC(C)(C)C)n2C1CCC1 [Example 382, N-(6-bromo-1-cyclobutyl-4-methoxy-1H-benzo[d]imidazol-2-yl)-3,3-dimethylbutanamide] | +++ (>4 (+++) fold increase over baseline)
18 | C[C@H](C(=O)Nc1nc2ccc(C(C)(C)O)cc2n1C1(C)CCC1)C(C)(C)C [Example 383, (S)-N-(6-(2-hydroxypropan-2-yl)-1-(1-methylcyclobutyl)-1H-benzo[d]imidazol-2-yl)-2,3,3-trimethylbutanamide] | ++ (3-3.9 (++))
19 | CC(C)(C)CC(=O)Nc1nc2c(F)cc(OCc3ccccc3)cc2n1C1CCC1 [Example 388, N-(6-(benzyloxy)-1-cyclobutyl-4-fluoro-1H-benzo[d]imidazol-2-yl)-3,3-dimethylbutanamide] | +++ (>4 (+++) fold increase over baseline)
20 | CC(C)(CC(=O)Nc1nc2c(F)cc(OC(F)F)cc2n1C1CCC1)C1CC1 [Example 390, N-(1-cyclobutyl-6-(difluoromethoxy)-4-fluoro-1H-benzo[d]imidazol-2-yl)-3-cyclopropyl-3-methylbutanamide] | + (1.2-2.9 (+))
21 | CC1(CC(=O)Nc2nc3ccc(C(C)(C)O)cc3n2C2(C)CCC2)CC1 [Example 391, N-(6-(2-hydroxypropan-2-yl)-1-(1-methylcyclobutyl)-1H-benzo[d]imidazol-2-yl)-2-(1-methylcyclopropyl)acetamide] | + (1.2-2.9 (+))
22 | COc1cc(Br)cc2c1nc(NC(=O)CC(C)(C)C)n2C1(C)CCC1 [Example 392, N-(6-bromo-4-methoxy-1-(1-methylcyclobutyl)-1H-benzo[d]imidazol-2-yl)-3,3-dimethylbutanamide] | +++ (>4 (+++) fold increase over baseline)
23 | CC(C)(C)CC(=O)Nc1nc2ccc(OC(F)F)cc2n1C(C)(C)C [Example 393, N-(1-(tert-butyl)-6-(difluoromethoxy)-1H-benzo[d]imidazol-2-yl)-3,3-dimethylbutanamide] | +++ (>4 (+++) fold increase over baseline)
24 | COCc1c(Cl)ccc2nc(NC(=O)CC(C)(C)C)n(C3CCC3)c12 [Example 399, N-(6-chloro-1-cyclobutyl-7-(methoxymethyl)-1H-benzo[d]imidazol-2-yl)-3,3-dimethylbutanamide] | +++ (>4 (+++) fold increase over baseline)
25 | CC1(CC(=O)Nc2nc3c(F)cc(C(C)(C)O)cc3n2C2CCC2)CC1 [Example 403, N-(1-cyclobutyl-4-fluoro-6-(2-hydroxypropan-2-yl)-1H-benzo[d]imidazol-2-yl)-2-(1-methylcyclopropyl)acetamide] | ++ (3-3.9 (++))
26 | CC(C)(O)c1cc(F)c2nc(NC(=O)CC3CC(F)(F)C3(F)F)n(C3CCC3)c2c1 (stereo not shown) [Example 405, N-(1-cyclobutyl-4-fluoro-6-(2-hydroxypropan-2-yl)-1H-benzo[d]imidazol-2-yl)-2-(2,2,3,3-tetrafluorocyclobutyl)acetamide] | ++ (3-3.9 (++))
27 | CC(C)(O)c1ccc2nc(NC(=O)CC(C)(C)C3CC3)n(CC(F)(F)F)c2c1 [Example 406, 3-cyclopropyl-N-(6-(2-hydroxypropan-2-yl)-1-(2,2,2-trifluoroethyl)-1H-benzo[d]imidazol-2-yl)-3-methylbutanamide] | +++ (>4 (+++) fold increase over baseline)
28 | CC1(n2c(NC(=O)CC(O)(c3ccccc3)C(F)(F)F)nc3c(F)cc(OC(F)F)cc32)CCC1 (stereo not shown) [Example 409, N-(6-(difluoromethoxy)-4-fluoro-1-(1-methylcyclobutyl)-1H-benzo[d]imidazol-2-yl)-4,4,4-trifluoro-3-hydroxy-3-phenylbutanamide] | + (1.2-2.9 (+))
29 | C[C@@H](CC(=O)Nc1nc2c(F)cc(C(C)(C)O)cc2n1C1CCC1)c1ccccc1 [Example 410, (S)-N-(1-cyclobutyl-4-fluoro-6-(2-hydroxypropan-2-yl)-1H-benzo[d]imidazol-2-yl)-3-phenylbutanamide] | O
30 | CC(C)(C)CC(=O)Nc1nc2c(F)cc(C#N)cc2n1C1CCC1 [Example 411, N-(6-cyano-1-cyclobutyl-4-fluoro-1H-benzo[d]imidazol-2-yl)-3,3-dimethylbutanamide] | +++ (>4 (+++) fold increase over baseline)
31 | C[C@H](CC(=O)Nc1nc2c(F)cc(C(C)(C)O)cc2n1C1CCC1)c1ccccc1 [Example 412, (R)-N-(1-cyclobutyl-4-fluoro-6-(2-hydroxypropan-2-yl)-1H-benzo[d]imidazol-2-yl)-3-phenylbutanamide] | ++ (3-3.9 (++))
